Measurements taken from article PMC6523531, “Mechanistic Studies on the Absorption-Enhancing Effects of Gemini Surfactant on the Intestinal Absorption of Poorly Absorbed Hydrophilic Drugs in Rats” (Pharmaceutics, 2019).

Experiments:
[1] = test system: rat small intestines; test: In situ closed-loop enteric absorption of CF with absorption enhancers; format: in vivo; details: for Enhancement Ratio (AUC with enhancer/AUC control without enhancer): CF 0.5 mg/kg, rat small intestine
Description: The enteric absorption of CF was examined by an in situ closed-loop method, as reported previously. The experiments were carried out in accordance with the guidelines of the Animal Ethics Committee at Kyoto Pharmaceutical University. The protocols were approved by this Committee (permit number: 16-12-069, permit date: 14 April 2016). The rats were starved overnight for approx. 16 h pre-dosing, but water was freely available. After inducing anesthesia with sodium pentobarbital which was administered intraperitoneally at a dose of 32 mg/kg body weight, the rats were placed under a heat lamp to maintain a body temperature at around 37 °C, and the intestines were exposed using a midline-abdominal incision. After the bile duct was ligated, the intestines were washed with phosphate buffered saline (PBS, pH 7.4), and the remaining buffer solution was expelled with air. Enteric cannulation was performed at both ends using polyethylene tubing, and the distal parts of the small intestines were clipped by forceps. The dosing solutions (3 mL) with or without absorption enhancers kept at 37 °C, were directly introduced into the lumen of the enteric loop through a cannulated opening in the proximal part of the small enteric loop, which was then closed by clipping with another forceps. The jugular vein was exposed, and approx. 0.3 mL of blood was collected via a direct puncture into heparinized syringes at predetermined time intervals up to 240 min. The samples were immediately centrifuged at 12,000 rpm (15,000× g) for a period of 5 min to obtain the plasma fraction, which was stored on ice for further analysis. CF fluorescence signals in these plasma samples were detected after the treatment with the same volume of acetonitrile using a fluorescence spectrophotometer, Powerscan1 HT supplied by BioTek Instruments (Winooski, VT, USA) at an excitation wavelength of 485 nm and an emission wavelength of 535 nm. There was no significant background fluorescence in the plasma when the fluorescence intensities of CF were determined in this study. The peak drug concentrations (Cmax) and the time to reach the peak drug concentrations (Tmax) in the plasma were directly determined from the plasma concentration–time profiles. The area under the curve (AUC) was calculated by the trapezoidal method from pre-dose (time zero) till the administration of the final sample. The absorption enhancement ratios of CF, with or without absorption enhancers, were calculated as follows: Absorption enhancement ratio = AUCwith enhancer/AUCcontrol without enhancer

[2] = test system: Caco-2 cell monolayers; test: Transepithelial electrical resistance (TEER) of Caco-2 cell monolayers; format: cell-based, Human
Description: (§1) Caco-2 cells (passage 45) were cultured in 175-cm^2 culture flask (Thermo Fisher Scientific™, Waltham, MA, USA). The culture medium consisted of DMEM containing 10% FBS, 0.1 mM MEM–NEAA, 2 mM glutamine, 100 U/mL penicillin, and 100 µg/mL streptomycin [30]. Cells were cultured in a humidified atmosphere of 5% CO2 at 37 °C. The culture medium was changed every two days. When the cultured Caco-2 cells became sub-confluent, they were seeded onto 12-mm Transwell® with 0.4-µm pore polycarbonate membrane inserts (Corning Inc., New York, NY, USA) at a density of 1 × 10^5 cells/insert. The transepithelial transport studies were performed when the transepithelial electrical resistance (TEER) values were more than 500 Ω·cm^2 (i.e., after 21 days). Briefly, after removing the incubation medium by aspiration, the apical and basal sides were washed thrice by Hank’s Balanced Salt (HBSS) solution (pH 7.4). The cells were incubated in HBSS (pH 6.0) for the apical side and HBSS (pH 7.4) for the basal side for 20 min at 37 °C. HBSS supplemented with 1 mg/mL glucose was used in all cell culture experiments. After removing the washing solution by aspiration, 500 µL of 10 µM CF in a HBSS (pH 6.0) solution with or without various concentrations (0.001% v/v, 0.01% v/v, 0.025% v/v, 0.05% v/v, and 0.1% v/v) of SLG-30, 0.1% (w/v) and 1% (w/v) NaGC or 0.05% (w/v) sodium laurate were added to the apical side at zero time, whereas precisely 1500 µL of HBSS (pH 7.4) was added to the basal side at 37 °C. The cells were kept at 37 °C and 5% CO2 and were continuously agitated on a shaker during the transport experiments.
(§2) The TEER values were measured by Millicell® (ERS-2 Volt-Ohm Meter, Billerica, MA, USA) at the predetermined times up to 24 h, and the initial values were considered as 100%. The samples from the basal side were withdrawn at predetermined time points up to 24 h. The samples were replaced with an equal volume of HBSS (pH 7.4). CF was determined as previously mentioned. The apparent permeability coefficients Papp (cm/s) for the transported CF was determined by the following equation: Papp=dXR/dt×1/A×1/C0 where Papp is the apparent permeability coefficient in centimeters per second, XR is the amount of CF in moles in the receptor side, dXR/dt is the flux across the monolayer, A is the diffusion area (i.e., in square centimeters), and C0 is the initial concentration of CF in the donor side in moles per milliliter.

[3] = test system: Caco-2 cell monolayers; test: Transport of CF across Caco-2 cell monolayers; format: in vitro ADME, Human; details: 10 µM CF
Description: as §1, with “After removing the washing solution by aspiration, 500 µL of 10 µM CF in a HBSS (pH 6.0) solution with or without various concentrations (0.001% v/v, 0.01% v/v, 0.025% v/v, 0.05% v/v, and 0.1% v/v) of SLG-30, 0.1% (w/v) and 1% (w/v) NaGC or 0.05% (w/v) sodium laurate were added to the apical side at zero time, whereas precisely 1500 µL of HBSS (pH 7.4) was added to the basal side at 37 °C. The cells were kept at 37 °C and 5% CO2 and were continuously agitated on a shaker during the transport experiments.” left out
as §2, with “The samples from the basal side were withdrawn at predetermined time points up to 24 h. The samples were replaced with an equal volume of HBSS (pH 7.4).” left out

[4] = test system: Caco-2 cells; test: Caco-2 cell damage by LDH release; format: cell-based, Human; details: after the transport studies, n = 6
Description: After the transport studies were over, the solution on the apical side of each well was collected. Cell injury caused by SLG-30 was determined by tracking the LDH release. The cell precipitate and the monolayers left on the filters were solubilized with 1% (v/v) Triton X-100. The solutions from apical sides and the lysates were centrifuged for 7 min at 200× g at a temperature of 4 °C. The activities of LDH in the supernatant were measured. (LDHrelease) stands for the activity of the LDH released into the apical side in the existence of SLG-30. (LDHcell) stands for the activity of the LDH obtained from the cell lysate. LDHreleased% was calculated by the following equation:LDHrelease% = LDHrelease × 100/(LDHrelease + LDHcells)

[5] = test system: brush-border membrane vesicles (BBMVs); test: Membrane fluidity of BBMVs by fluorescence polarization (fluorescence anisotropy); details: rat BBMVs, 37 °C, SLG-30 0.1-1.0% v/v, vs control, n = 4
Description: To prepare BBMVs, we followed the methods as reported previously with a slight modification. Briefly, an in situ small intestinal loop was prepared in each rat, as mentioned above, and then, PBS (pH 7.4) was administered into the loop. The fat was trimmed off from the small intestine and mesentery. Then, the whole small intestine was soaked in ice-cold PBS (pH 7.4). The small intestine was divided into 10 cm segments. Mucosa was scraped out with a slide glass from each of these segments and used for subsequent studies. BBMVs were prepared by the divalent cation precipitation method using MgCl2 in the presence of ethylenebis (oxyethylenenitrilo) tetraacetic acid (EGTA). Briefly, the collected mucosa was homogenized in a buffer containing mannitol (300 mM), EGTA (5 mM), and Tris (pH 7.4) (12 mM) by using a tissue homogenizer. An aqueous solution of 10 mM magnesium chloride was added to the homogenate. The homogenate was centrifuged at 3000× g for 15 min. The supernatant was then centrifuged at 32,000× g for 30 min. The pellet was resuspended in a buffer containing mannitol (300 mM), EGTA (5 mM), and Tris (pH 7.4) (12 mM) by using a 26-G needle. The protein concentration was determined by the BCA method using bovine serum albumin as a standard, and the final concentration was adjusted to 1 mg/ml in each Eppendorf tube. The samples were frozen by liquid nitrogen and kept at −80 °C for further studies.
The BBMVs (100 μg protein) were incubated with 1 μM DPH, with 0.5 μM tma-DPH or with 5 μM DNS-Cl in HEPES-Tris buffer (25 mM HEPES, 5.4 mM KCl, 1.8 mM CaCl2, 0.8 mM MgSO4, 140 mM NaCl, 5 mM glucose, pH 7.4 adjusted by 1 M Tris) in the dark at 37 °C for 30 min [25, 28]. Then, various concentrations (0.1% v/v, 0.25% v/v, 0.5% v/v, and 1.0% v/v) of SLG-30 were added. Then, the samples were incubated in the dark for 1 min at 37 °C. For the control group, the same procedure was carried out by adding the HEPES-Tris buffer only. The fluorescence intensities and the steady-state polarization of fluorescence expressed as the fluorescence anisotropy, r, of the labeled membrane vesicles were measured at 37 °C. The excitation and emission wavelengths were λex = 360 nm, and λem = 430 nm for DPH and tma-DPH and λex = 380 nm and λem = 480 nm for DNS-Cl. The measurements were carried out by using a Hitachi Spectrofluorometer (F-2000 Spectrofluorometer, Hitachi Seisakusho Corp, Yokohama, Japan) equipped with a polarizer set.
The fluorescence anisotropy (r) was calculated using the following equation: r=IV−IH/IV+2IH where IV and IH respectively represent the […] fluorescence intensities to the polarized excitation plane.

[6] = in situ closed loop, 0.5% (v/v) SLG-30, 0.5% (w/v) sodium laurate, 1% (w/v) sodium glycocholate

AUC0→240 of CF higher than that of the control group ([1]; rat in situ closed loop, 0.5% (v/v) SLG-30 or 1% (w/v) NaGC) | effect on the transport of CF ([3]; 0.1% (w/v) NaGC) | increase of the transport of CF vs control ([3]; 1% (w/v) NaGC) | Structure (SMILES) | Enhancement Ratio (AUC with enhancer/AUC control without enhancer) [1, 6] | TEER values ([2]; 0.1% (w/v) NaGC) | TEER values ([2]; 1% (w/v) NaGC) | release of LDH from Caco-2 cells vs control ([4]; 0.1% (w/v) and 1% (w/v) NaGC) | Tmax of CF ([1]; plasma CF (0.5 mg/kg) given with enhancer into rat small intestine, in situ closed loop, 0.5% (v/v) SLG-30, 0.5% (w/v) sodium laurate, 1% (w/v) sodium glycocholate, mean ± S.E., n = 3) | TEER values ([2]; 0.05% (w/v) sodium laurate, without recovering to the baseline) | increase of the transport of CF vs control ([3]; 0.05% (w/v) sodium laurate) | activity of LDH released from Caco-2 cells vs control ([4]; 0.05% (w/v) sodium laurate) | fluorescence anisotropy of tma-DPH (outer lipid bilayers) ([5]; 0.5 μM tma-DPH) | fluorescence anisotropy of DPH (inner lipid bilayers) ([5]; 1 μM DPH) | fluorescence anisotropy of DNS-Cl (protein portion) ([5]; 5 μM DNS-Cl, p < 0.01)
4.5 times | insignificant effect | 5 times | C[C@H](CCC(=O)NCC(=O)[O-])[C@H]1CC[C@H]2[C@@H]3[C@H](O)C[C@@H]4C[C@H](O)CC[C@]4(C)[C@H]3C[C@H](O)[C@]12C.[Na+] [Sodium glycocholate, sodium glycocholate] | 4.5 | Almost no effect | significantly decreased then recovered to the baseline | Neither 0.1% (w/v) nor 1% (w/v) of NaGC increased the release of LDH |  |  |  |  |  |  | 
 |  |  | CCCCCCCCCCCC(=O)[O-].[Na+] [Sodium laurate, sodium laurate] | 2.7 |  |  |  | approximately 15 min | significantly reduced | 94 times | significantly increased |  |  | 
 |  |  | CC(C)CCC[C@@H](C)[C@H]1CC[C@H]2[C@@H]3CC=C4C[C@@H](O)CC[C@]4(C)[C@H]3CC[C@]12C [cholesterol] |  |  |  |  |  |  |  |  | increased the fluorescence anisotropy | increased the fluorescence anisotropy | increased the fluorescence anisotropy
